This is an account of results in patent publication US20170182087A1, “MAIN CHAIN POLYAMINES” (priority 2014, published 2017).

This series concerns human renal proximal tubule epithelial cells (RPTEC). As to the kind of experiment: Cytotoxicity Assay, RPTEC Cells. It counts as cell-based. As to the method:
Cells were plated at 3,000 cells/well (RPTEC) in 96-well plates and were incubated overnight at 37° C. The compounds were added to the wells, and the cells were incubated for 4 days. Alomar Blue was added to one set of plates and incubated for 4 hours. The plates were read when the compound was added (time zero) and at the end of the study. Fluorescence was read using 530 nm (excitation) and 590 nm (emission) according to the manufacturer's instructions.

Regarding “Poly(1,3-bis N-(1,4-dimethybenzene)piperidin-4-yl)propane)”, the Cytotoxicity (Kidney Epithelial IC50) is 1.5 µg/mL.

For the substance “Poly(1,3-bis(1,5-dimethybenzene)piperidin-4-yl)propane)”, the Cytotoxicity (Kidney Epithelial IC50) amounted to 1.5 µg/mL. The figure for “Poly(1,3-bis(1-pentyl-piperidin-4-yl)propane [4,4′-Trimethylenedipiperidine/Glutaraldehyde (1:1.5) <10K]” is 4 µg/mL; for “Poly(1,3-bis(1-pentyl-piperidin-4-yl)propane [4,4′-Trimethylenedipiperidine/Glutaraldehyde (1:1.5) >10K]” it is 5 µg/mL.

In turn, “Poly(1,3-bis(1-pentyl-piperidin-4-yl)propane [4,4′-Trimethylenedipiperidine/Glutaraldehyde (1:2.5) <10K]” came in with a Cytotoxicity (Kidney Epithelial IC50) of 2 µg/mL. The figure for “Poly(1,3-bis(1-pentyl-piperidin-4-yl)propane [4,4′-Trimethylenedipiperidine/Glutaraldehyde (1:3.5) <10K]” is 2 µg/mL. The figure for “Poly(1,3-bis(1-pentyl-piperidin-4-yl)propane [4,4′-Trimethylenedipiperidine/Glutaraldehyde <10K]” is 331 µg/mL; for “Poly(1,3-bis(1-pentyl-piperidin-4-yl)propane [4,4′-Trimethylenedipiperidine/Glutaraldehyde >10K]” it is 1.5 µg/mL. The figure for “Poly(1,3-bis(1-pentyl-piperidin-4-yl)propane [Poly(4,4′-Trimethylenedipiperidine/Glutaraldehyde (1:1)), <1]” is 2 µg/mL; for “Poly(1,3-bis(1-pentyl-piperidin-4-yl)propane [Poly(4,4′-Trimethylenedipiperidine/Glutaraldehyde (1:1)), >1]” it is 2 µg/mL. On to “Poly((1,1′-dipentyl)-4,4-dipiperidine) [4,4′-dipiperidine/Glutaraldehyde <10K]”, for which the Cytotoxicity (Kidney Epithelial IC50) worked out at 1.5 µg/mL. Regarding “Poly((1,1′-dipentyl)-4,4-dipiperidine) [Poly(1:1 Dipiperidine:Glutaraldehyde); <10K molecular weight]”, the Cytotoxicity (Kidney Epithelial IC50) is 2 µg/mL.
